In brackets after ≈: the same amount, converted by molar mass. Activity calls are given as the source filed them. No cut-off for these calls is given here.
Key:
[1] = test system: Staphylococcus aureus; assay: Ratio of MBC to MIC for methicillin/erythromycin/tetracycline-resistant Staphylococcus aureus USA300 NRS384 clinical isolate; type: functional
[2] = test system: Staphylococcus aureus; assay: Bactericidal activity against methicillin/ciprofloxacin/clindamycin-resistant Staphylococcus aureus USA100 NRS382 clinical isolate after 24 hrs; type: functional
[3] = test system: Staphylococcus aureus; assay: Antibacterial activity against vancomycin-resistant Staphylococcus aureus VRSA4 clinical isolate after 18 to 20 hrs by broth microdilution method; type: functional
[4] = test system: Staphylococcus aureus; assay: Antibacterial activity against methicillin-resistant Staphylococcus aureus USA400 NRS123 clinical isolate infected in mouse J774 cells assessed as reduction of bacterial load at 16 ug/ml after 12 hrs relative to control; type: functional; settings: USA400 NRS123, J774, 12 h
[5] = test system: Staphylococcus aureus; assay: Bactericidal activity against methicillin-resistant Staphylococcus aureus USA400 NRS123 clinical isolate after 24 hrs; type: functional
[6] = test system: Staphylococcus aureus; assay: Antibacterial activity against methicillin-resistant Staphylococcus aureus USA400 NRS123 clinical isolate infected in mouse J774 cells assessed as reduction of bacterial load at 16 ug/ml after 24 hrs relative to control; type: functional; settings: USA400 NRS123, J774, 24 h
[7] = test system: Staphylococcus aureus; assay: Antibacterial activity against mupirocin/rifampicin-resistant Staphylococcus aureus RN4220 NRS107 clinical isolate after 18 to 20 hrs by broth microdilution method; type: functional
[8] = test system: Staphylococcus aureus; assay: Potency index, ratio of vancomycin MIC to test compound MIC for methicillin-resistant Staphylococcus aureus 2658 RCMB; type: functional
[9] = test system: Staphylococcus aureus; assay: Ratio of MBC to MIC for methicillin-resistant Staphylococcus aureus USA400 NRS123 clinical isolate; type: functional
[10] = test system: Staphylococcus aureus; assay: Potentiation of vancomycin-mediated antibacterial activity against vancomycin-resistant Staphylococcus aureus VRSA4 clinical isolate assessed as reduction in vancomycin MIC at 0.5 times MIC preincubated for 30 mins followed by vancomycin addition measured after 20 to 22 hrs relative to control; type: functional
[11] = Half life in human liver microsomes after 10 to 60 mins in absence of NADPH by LC/MS/MS analysis; type: ADME, microsome
[12] = Intrinsic clearance in human liver microsomes after 10 to 60 mins in presence of NADPH by LC/MS/MS analysis; type: ADME, microsome; settings: read-out: CLH
[13] = test system: Staphylococcus aureus; assay: Antibacterial activity against methicillin-resistant Staphylococcus aureus USA400 NRS123 clinical isolate infected in mouse J774 cells assessed as reduction of bacterial load at 16 ug/ml after 8 hrs; type: functional, cell-based
[14] = test system: Staphylococcus aureus; assay: Antibacterial activity against methicillin/ciprofloxacin/clindamycin-resistant Staphylococcus aureus USA100 NRS382 clinical isolate after 18 to 20 hrs by broth microdilution method; type: functional
[15] = test system: Staphylococcus aureus; assay: Ratio of MBC to MIC for methicillin/ciprofloxacin/gentamicin/clindamycin-resistant Staphylococcus aureus USA200 NRS383 clinical isolate; type: functional
[16] = test system: HaCaT; assay: Cytotoxicity against human HaCaT cells assessed as decrease in cell viability up to 32 ug/ml after 2 hrs by MTS assay; type: cell-based
[17] = test system: HaCaT; assay: Cytotoxicity against human HaCaT cells assessed as decrease in cell viability at 64 ug/ml after 2 hrs by MTS assay; type: cell-based
[18] = test system: Staphylococcus aureus; assay: Bactericidal activity against mupirocin/rifampicin-resistant Staphylococcus aureus RN4220 NRS107 clinical isolate after 24 hrs; type: functional; settings: RN4220 NRS107, 24 h
[19] = test system: Staphylococcus aureus; assay: Antibacterial activity against vancomycin-resistant Staphylococcus aureus VRSA10 clinical isolate after 18 to 20 hrs by broth microdilution method; type: functional
[20] = Half life in human liver microsomes after 10 to 60 mins in presence of NADPH by LC/MS/MS analysis; type: ADME, microsome
[21] = test system: J774; assay: Cytotoxicity against mouse J774 cells assessed as decrease in cell viability up to 16 ug/ml after 2 hrs by MTS assay; type: cell-based; settings: j774, 2 h
[22] = test system: Staphylococcus aureus; assay: Bactericidal activity against vancomycin-resistant Staphylococcus aureus VRSA10 clinical isolate after 24 hrs; type: functional; settings: VRSA10, 24 h
[23] = test system: Staphylococcus aureus; assay: Antibacterial activity against methicillin/ciprofloxacin/gentamicin/clindamycin-resistant Staphylococcus aureus USA200 NRS383 clinical isolate after 18 to 20 hrs by broth microdilution method; type: functional
[24] = test system: Staphylococcus aureus; assay: Antibacterial activity against methicillin-resistant Staphylococcus aureus 2658 RCMB after 18 to 20 hrs by broth microdilution method; type: functional
[25] = test system: Staphylococcus aureus; assay: Bactericidal activity against methicillin-resistant Staphylococcus aureus USA400 NRS123 clinical isolate assessed as time required to reduce 3 log10CFU of bacterial load at 4 times MIC by time kill assay; type: functional
[26] = test system: Staphylococcus aureus; assay: Potentiation of vancomycin-mediated antibacterial activity against vancomycin-resistant Staphylococcus aureus VRSA10 clinical isolate assessed as reduction in vancomycin MIC at 0.5 times MIC preincubated for 30 mins followed by vancomycin addition measured after 20 to 22 hrs relative to control; type: functional
[27] = Intrinsic clearance in human liver microsomes after 10 to 60 mins in absence of NADPH by LC/MS/MS analysis; type: ADME, microsome; settings: read-out: CLH
[28] = test system: Staphylococcus aureus; assay: Antibacterial activity against methicillin/erythromycin/tetracycline-resistant Staphylococcus aureus USA300 NRS384 clinical isolate after 18 to 20 hrs by broth microdilution method; type: functional
[29] = test system: Staphylococcus aureus; assay: Bactericidal activity against vancomycin-resistant Staphylococcus aureus VRSA4 clinical isolate after 24 hrs; type: functional; settings: VRSA4, 24 h
[30] = test system: Staphylococcus aureus; assay: Bactericidal activity against methicillin/erythromycin/tetracycline-resistant Staphylococcus aureus USA300 NRS384 clinical isolate after 24 hrs; type: functional
[31] = test system: Staphylococcus aureus; assay: Antibacterial activity against methicillin-resistant Staphylococcus aureus USA400 NRS123 clinical isolate after 18 to 20 hrs by broth microdilution method; type: functional
[32] = test system: Staphylococcus aureus; assay: Bactericidal activity against methicillin/ciprofloxacin/gentamicin/clindamycin-resistant Staphylococcus aureus USA200 NRS383 clinical isolate after 24 hrs; type: functional
[33] = test system: Staphylococcus aureus; assay: Antibacterial activity against methicillin-resistant Staphylococcus aureus USA300 infected in Balb/c mouse assessed as reduction in bacterial load in wound at 2% administered topically bid for 3 days starting 48 hrs post infection relative to control; type: functional
[34] = Drug metabolism in Sprague-Dawley rat urine assessed as […] at 50 mg/kg administered via oral gavage after 24 hrs by LC/MS/MS analysis; type: ADME, organism-based; settings: in vivo
[35] = Drug metabolism in Sprague-Dawley rat urine assessed as CYP450-mediated oxidation at 50 mg/kg administered via oral gavage after 24 hrs by LC/MS/MS analysis; type: ADME, organism-based; settings: in vivo
[36] = Drug metabolism in Sprague-Dawley rat serum assessed as CYP450-mediated oxidation at 50 mg/kg administered via oral gavage after 6 hrs by LC/MS/MS analysis; type: ADME, organism-based; settings: in vivo
[37] = Drug metabolism in Sprague-Dawley rat serum assessed as […] at 50 mg/kg administered via oral gavage after 6 hrs by LC/MS/MS analysis; type: ADME, organism-based; settings: in vivo

What does the source list for `C/C(=N\NC(=N)N)c1sc(-c2ccc(OC3CCCCCC3)cc2)nc1C`?
Ratio [1]: >3; Activity [2]: Dose-dependent effect; MBC ([2]; USA100 NRS382, 24 h): 4 µg/mL (≈ 10.4 µM); MIC [3]: 4 µg/mL (≈ 10.4 µM); inhibition at 16 µg/mL [4]: 48%; Activity [5]: Dose-dependent effect; MBC ([5]; USA400 NRS123, 24 h): 16 µg/mL (≈ 41.5 µM); inhibition at 16 µg/mL [6]: 70%; MIC [7]: 4 µg/mL (≈ 10.4 µM); Ratio [8]: 1; Ratio [9]: >3; fold change (FC) [10]: 16; half-life [11]: > 4 h; microsomal CLint [12]: < 9.6 µL/min/mg; Activity [13]: inactive; MIC [14]: 2 µg/mL (≈ 5.19 µM); Ratio [15]: >3; Activity [16]: Non-Toxic; Activity [17]: Toxic; MBC [18]: 8 µg/mL (≈ 20.8 µM); MIC [19]: 4 µg/mL (≈ 10.4 µM); half-life [20]: > 4 h; Activity [21]: Non-Toxic; MBC [22]: 4 µg/mL (≈ 10.4 µM); MIC [23]: 2 µg/mL (≈ 5.19 µM); MIC [24]: 0.98 µg/mL (≈ 2.54 µM); Time [25]: 48 h; fold change (FC) [26]: 256; microsomal CLint [27]: < 9.6 µL/min/mg; MIC [28]: 4 µg/mL (≈ 10.4 µM); MBC [29]: 4 µg/mL (≈ 10.4 µM); Activity [30]: Dose-dependent effect; MBC ([30]; USA300 NRS384, 24 h): 16 µg/mL (≈ 41.5 µM); MIC [31]: 4 µg/mL (≈ 10.4 µM); Activity [32]: Dose-dependent effect; MBC ([32]; USA200 NRS383, 24 h): 8 µg/mL (≈ 20.8 µM)

With `CCCCc1ccc(-c2nc(C)c(/C(C)=N/NC(=N)N)s2)cc1` as the compound, how does the Activity [33] read?
Its Activity is 2.36 deltalog10CFU.

And the half-life [11]?
Its half-life is greater than 1 h.

And the microsomal CLint [12]?
Its microsomal CLint is 80.3 µL/min/mg.

And the Drug metabolism [34]?
The Drug metabolism was “Metabolite_Detected”.

What about the Drug metabolism [35] of the same compound?
The Drug metabolism was “Metabolite_Detected”.

And the half-life [20]?
Its half-life is 0.48 h.

What about the MIC [24] of the same compound?
The MIC was 3.75 µg/mL (≈ 11.4 µM).

What about the Drug metabolism [36] of the same compound?
Its Drug metabolism is “Metabolite_Detected”.

What about the Drug metabolism [37] of the same compound?
The Drug metabolism was “Metabolite_Detected”.

— ChEMBL document CHEMBL4002577, “Phenylthiazole antibiotics: A metabolism-guided approach to overcome short duration of action” (Eur J Med Chem, 2017)
